Patent US12419898B2, “Synergistic composition for maintenance of healthy balance of microflora” (Kimberly-Clark Worldwide, Inc., priority 2015, dated 2025)

tested on: L. crispatus and E. coli; assay: Therapeutic effect protocol: L. crispatus / E. coli co-culture in LAPT-g media supplemented with therapeutic agents; assay type: cell-based; details: anaerobic, 37° C., measured 36 hours after inoculation, agent w/vol % as given per sample
Method: Therapeutic Effect Protocol
Colonies of L. crispatus and E. coli were prepared as follows. A colony of L. crispatus was transferred to 7 ml MRS broth and incubated anaerobically (using BD GasPak EZ anaerobe container system with indicator) at 37° C. without shaking for 18-20 hours. A colony of E. coli was transferred to 5 ml TSB broth and incubated aerobically (shaking at 100 rpm) at 37° C. for 18-20 hours.
Colonies were then inoculated as follows. Bacterial cultures were gently vortexed and 1 mL of each culture was transferred to a corresponding 2.0 mL micro-centrifuge tube and then centrifuged for two minutes at 14,500 rpm. The cultural supernatant was removed and the cell pellet was re-suspended in 1 mL of 0.95% (wt/vol %) saline. The re-suspended colony was then centrifuged for two minutes at 14,500 rpms and the supernatant was removed. For L. crispatus, the pellet was re-suspended in 1 mL of 0.95% saline to achieve ˜10^7-10^8 cfu/mL. For E. coli the pellet was re-suspended in 1 mL of 0.95% saline to achieve ˜10^8-10^9 cfu/mL.
Media were prepared as follows.
All of the ingredients in Table 1 were combined and the pH was adjusted to 6.5. The media were then autoclaved for 20 minutes at 125° C. To evaluate the effect of various therapeutic agents on the growth of bacteria the LAPT-g media, prepared as described above, was supplemented with various therapeutic agents to a final test concentration between 0.1 and 1.0%.
Five milliliters (5 mL) of each medium was transferred to a test tube in duplicates for subsequent inoculation. A master mixture of L. crispatus and E. coli, prepared as described above, was prepared in 1,000:1 ratio. Each (5 ml) test tube was inoculated with the master mixture to give 10^5-10^6 total CFU L. crispatus and 100-1,000 total CFU E. coli per tube.
To establish a negative control, one tube was vortexed and 100 μL was removed to determine the initial cell concentrations by serial dilutions and plating (2 plates per dilution). L. crispatus is selected on MRS agar plates incubated anaerobically at 37° C. for two days. E. coli is selected on TSA plates incubated aerobically at 37° C. for one day. The co-cultures were incubated in an anaerobic container with BD GasPaks at 37° C. for 36 hours.
The effect of the carbon source on the ratio of L. crispatus to E. coli was measured 36 hours after inoculation. The co-culture tube was vortexed and 100 μL was removed to determine the final cell concentrations by serial dilutions and plating (2 plates per dilution). L. crispatus is selected on MRS agar plates incubated anaerobically at 37° C. for two days. E. coli is selected on TSA plates incubated aerobically at 37° C. for one day.
Inventive samples were prepared by supplementing LAPT-g media, prepared as described above, with various therapeutic agents as described in Table 2, below. The therapeutic effect of the formulation was then measured using the assay described above in the Test Methods section above. The therapeutic effect is summarized below as the ratio of L. crispatus to E. coi.

SMILES | L. crispatus/E. coli ratio
OC[C@H]1O[C@@H](O[C@@H]2[C@@H](CO)OC(O)(CO)[C@H]2O)[C@H](O)[C@@H](O)[C@H]1O (mixture of isomers) [Sample 28, Lactulose] | 3.9
O=CC[C@H](O)[C@H](O)CO [Sample 21, 2-Deoxy-D-Ribose] | 1.7
CO[C@H]1O[C@H](CO)[C@@H](O)[C@H](O)[C@H]1O [Sample 22, α-Methyl-D-Glucoside] | 3
OC[C@H]1O[C@@H]2O[C@H]3[C@H](O)[C@@H](O)[C@@H](O[C@H]4[C@H](O)[C@@H](O)[C@@H](O[C@H]5[C@H](O)[C@@H](O)[C@@H](O[C@H]6[C@H](O)[C@@H](O)[C@@H](O[C@H]7[C@H](O)[C@@H](O)[C@@H](O[C@H]1[C@H](O)[C@H]2O)O[C@@H]7CO)O[C@@H]6CO)O[C@@H]5CO)O[C@@H]4CO)O[C@@H]3CO [Sample 23, α-Cyclodextrin] | 6.5
O=C[C@@H](O)[C@H](O)[C@H](O)CO [Sample 24, D-Arabinose] | 2.2
O.O.OC[C@H]1O[C@H](O[C@H]2O[C@H](CO)[C@@H](O)[C@H](O)[C@H]2O)[C@H](O)[C@@H](O)[C@@H]1O [Sample 26, D-Trehalose] | 30.1
O=C(O)CC(O)C(=O)O (centres unmarked) [Sample 29, Malic acid] | 30.7
OCc1ccccc1O[C@@H]1O[C@H](CO)[C@@H](O)[C@H](O)[C@H]1O [Sample 32, Salicin] | 1.5
